Measurements as given in patent publication US20230016551A1, “METHOD FOR ADMINISTRATION OF URSODEOXYCHOLIC ACID” (SHILPA MEDICARE LIMITED, priority 2020, published 2023).
Several values for one entry are separate records, joined by “and”; a condition that tells them apart may be missing. Equal entries are not always repeated.

How the values were obtained:
Assay type in all cases: in vivo, human
[1] = tested on: patients with non-alcoholic fatty liver disease; assay: NAFLD patients: BMI, liver parameters (GGT, AST, ALT) and liver ultrasound grade, intravenous vs oral UDCA; design: GGT / AST / ALT: unit not given here; settings: n = 50; for Liver Ultrasound - G: echographic fatty liver grade 0-3; for BMI / ALT / AST / GGT: mean±SD
Description: Two groups of patients (each group consisting of 50 patients N=50 as disclosed in Table -1) with non-alcoholic fatty liver disease are taken and standardized with the diet of 1300 calories/day (30% proteins, 30% carbohydrates and 40% fat). The first group of patients was treated with 50 mg/kg/day UDCA orally for first two months (500 mg capsules swallowed after meals on average of 2-3 capsules after breakfast, 3-4 capsules after lunch and 3-4 capsules after dinner). The second group of patients was treated with intravenous schedule of UDCA at a dose of 3500 mg each other day (every 48 hours) for a total of 24 intravenous sessions. The lab examinations were performed at time T0 (beginning of the study) and time T1 (end of second month treatment). Each patient of the two groups was submitted to standard echo graphic classification as follows: • Grade 0: No fatty liver • Grade 1 (Mild): Mild diffuse increase in the echogenicity of liver parenchyma or increased hepatorenal contrast with normal diaphragm and intrahepatic vessel borders. • Grade 2 (Moderate): Moderate diffuse increase in the echogenicity of liver parenchyma and increased hepatorenal contrast with slight impairment of diaphragm and intrahepatic vessel borders. • Grade 3 (Severe): In addition to moderate steatosis there was no visualization of posterior portion of the right lobe of liver, intrahepatic vessel borders and diaphragm. Values were presented as mean± standard deviation for quantitative variable and percentages for categorical variables. The two groups were compared by student’s t-test for quantitative variable and chi-square for the categorical variables. Changes from baseline to 12 weeks were compared by paired t-test within each group. Wilcoxon test was used for rating variable comparison before and after treatment in each group.

[2] = tested on: patients with non-alcoholic fatty liver disease; assay: NAFLD patients: gastrointestinal side effects, oral vs intravenous UDCA
Description: The first group of patients was treated with 50 mg/kg/day UDCA orally for first two months (500 mg capsules swallowed after meals on average of 2-3 capsules after breakfast, 3-4 capsules after lunch and 3-4 capsules after dinner). The second group of patients was treated with intravenous schedule of UDCA at a dose of 3500 mg each other day (every 48 hours) for a total of 24 intravenous sessions. The lab examinations were performed at time T0 (beginning of the study) and time T1 (end of second month treatment). Each patient of the two groups was submitted to standard echo graphic classification as follows: • Grade 0: No fatty liver • Grade 1 (Mild): Mild diffuse increase in the echogenicity of liver parenchyma or increased hepatorenal contrast with normal diaphragm and intrahepatic vessel borders. • Grade 2 (Moderate): Moderate diffuse increase in the echogenicity of liver parenchyma and increased hepatorenal contrast with slight impairment of diaphragm and intrahepatic vessel borders. • Grade 3 (Severe): In addition to moderate steatosis there was no visualization of posterior portion of the right lobe of liver, intrahepatic vessel borders and diaphragm.

[3] = tested on: patients with non-alcoholic fatty liver disease; assay: NAFLD patients: liver elastography (stiffness, kPa)
Excerpt: B. Elastography in Liver: Ultrasound imaging plays a major role in the diagnosis, monitoring and therapeutic decisions of chronic liver diseases. It has many clinical indications: morphological examination of the liver parenchyma and assessment of the risk of chronic liver disease by investigating for signs of dysmorphism and/or portal hypertension; detecting and characterizing liver lesions; monitoring local treatments and assessment of treatment response. Different levels of fibrosis are assessed using a histological score. The most widely used is the METAVIR score, which incorporates five stages of fibrosis: • F0 (no fibrosis), • F1 (portal fibrosis without septa: minimal fibrosis), • F2 (portal fibrosis with a few septa: moderate fibrosis or clinically significant fibrosis), • F3 (septal fibrosis with many septa but no cirrhosis: severe fibrosis) and F4 (cirrhosis). Staging liver fibrosis in patients with chronic liver disease is essential for patient management as it allows: • 1) To identify the severity of the liver damage in order to decide whether or not to start treatment (chronic viral liver disease) to avoid progression to cirrhosis when the fibrosis becomes significant ( ≥F2); • 2) To assess the progression or regression of liver fibrosis during treatment; • 3) To institute specific monitoring to screen for and treat complications (HCC, Esophageal varices) in patients suffering from cirrhosis and even severe fibrosis ( ≥F3). Conventional ultrasound cannot differentiate accurately the different liver fibrosis stages. Existing tools to assess liver fibrosis include liver biopsy (LB), which is invasive, and other non-invasive methods. The main non-invasive method to assess liver fibrosis is based on a physical parameter that measures the tissue elasticity and is called Elastography. It can replace subjective palpation and is intended to image the mechanical properties of tissues and more particularly their stiffness. The Elastography methods are based on a common approach: measurement of deformation induced in a tissue by a force. This technique uses an external mechanical device or an internal acoustic radiation force (ARFI and SWE) to induce shear waves in the tissue to be explored. The diagnostic action mechanism is based on shear wave, which is generated by an external mechanical impulse and whose speed is measured by an ultrasound one-dimensional probe. The one-dimensional probe (3.5 MHz) is mounted along the axis of an electro-dynamic transducer (vibrator). In this way it is possible to define the liver stiffness by measuring the velocity of elastic shear waves in the liver parenchyma generated by the mechanical impulse. The propagation velocity is directly related to the stiffness of the medium, defined by the Young modulus. […] The elasticity is expressed in kPa (kilopascals) and is measured at depth ranging from 25 to 65 mm in a 1 x4 cm area: the assessed liver volume is therefore two hundred times greater than the volume examined in a liver biopsy (LB). The obtained values range from 2.5 kPa to 75 kPa. Mean liver elasticity in “normal” subject is 5.81±1.54 and 5.23±1.59 kPa respectively for men and women.

[4] = tested on: patients with biliary colicky pain due to radiolucent gallstones; assay: Dissolution of gallbladder transparent stones and colicky pain, intravenous vs oral UDCA; settings: for patients with gall stones dissolution by echographic evaluation: n = 10
Description: 20 patients were recruited aged 35 years to 65 years with sudden burst of biliary colicky pain due to radiolucent gallstones, diameter 0.3 to […] and altered liver enzymes. Some patients are also […] complaining of quite an intense pain with nausea and vomiting but without fever, negative inflammation markers (ESR, CRP) and slight leukocytosis, no rebound tenderness at the gallbladder manual exploration. […] were administered with 3500 mg of UDCA every 12 hours for 6 days from the cubital vein; the very first infusion at the admission was added with 20 mg hyoscine-N-butyl bromide and 75 mg diclofenac as the patients are distressed by excruciating pain.

[5] = tested on: patients with non-alcoholic fatty liver disease; assay: NAFLD patients: liver biopsy histology, histology activity index (HAI) score; design: scale not given here; settings: individual patients 1-4
Excerpt: A. Histology Examination: Only four patients in each group has accepted to undergo the liver biopsy (LB) before and after the treatment with intravenous UDCA and oral UDCA.

[6] = intravenous, 3500 mg every 48 hours, 24 sessions, T0
[7] = intravenous, 3500 mg every 48 hours, 24 sessions, T1 (end of second month)
[8] = oral, 50 mg/kg/day for two months, T0
[9] = oral, 50 mg/kg/day for two months, T1 (end of second month)
[10] = oral, 50 mg/kg/day for two months
[11] = oral group, 0.7 g/kg oral UDCA for three months

With `C[C@H](CCC(=O)O)[C@H]1CC[C@H]2[C@@H]3[C@@H](O)C[C@@H]4C[C@H](O)CC[C@]4(C)[C@H]3CC[C@]12C` [UDCA, ursodeoxycholic acid] the “Liver Ultrasound - G” value [1, 6] was 3±2, the “Liver Ultrasound - G” value [1, 7] was 1±0 and the “Liver Ultrasound - G” value [1, 8] was 3±2. The “Liver Ultrasound - G” value [1, 9] was 2±1, the BMI ([1]; intravenous, 3500 mg every 48 hours, 24 sessions, T0 (beginning of the study)) was 29.06±4.6 kg/m^2 and the ALT [1, 6] was 78.05±5.52. It also gave an AST [1, 6] of 65.54±4.56, a GGT [1, 6] of 19.52±5.82 and an ALT [1, 7] of 52.6±5.65. For the same molecule, the AST [1, 7] was 44.56±5.52, the BMI [1, 7] was 26.25±6.2 kg/m^2 and the GGT [1, 7] was 16.77±7.76. It also gave a BMI ([1]; oral, 50 mg/kg/day for two months, T0 (beginning of the study)) of 28.18±3.8 kg/m^2, an ALT [1, 8] of 76.48±4.95 and an AST [1, 8] of 63.25±5.43. For the same molecule, the GGT [1, 8] was 22.7±6.43, the ALT [1, 9] was 74.32±5.58 and the AST [1, 9] was 59.43±3.39. The BMI [1, 9] was 27.67±4.2 kg/m^2, the GGT [1, 9] was 20.83±7.56 and the “local or systemic side effects during and after administration” value ([2]; intravenous, 3500 mg every 48 hours, 24 sessions) was “No local or systemic side effects were noted”. For the same molecule, the tolerability and compliance ([2]; intravenous, compared with the capsules to be swallowed) was “tolerated and preferred in terms of compliance”, the “bloating, share of the patients” value [2, 10] was 20% and the “colicky pain as side effect” value [2, 10] was “moderate colicky pain”. For the same molecule, the “diarrhoea, share of the patients” value [2, 10] was 38%, the “nausea, share of the patients” value [2, 10] was 15% and the “reduced appetite, share of the patients” value [2, 10] was 10%. For the same molecule, the “liver stiffness by elastography (mean ± SD)” value (shortened to “liver stiffness … (mean ± SD)”) ([3]; METAVIR score F ≥3, intravenous administration, T0) was 20.2±5.7 kPa, the “liver stiffness … (mean ± SD)” value ([3]; METAVIR score F ≥3, intravenous administration, T1) was 9.9±5.6 kPa and the “liver stiffness … (mean ± SD)” value ([3]; METAVIR score F ≥3, oral administration, T0) was 19.9±7.1 kPa. For the same molecule, the “liver stiffness … (mean ± SD)” value ([3]; METAVIR score F ≥3, oral administration, T1) was 12.5±6.9 kPa, the “liver stiffness … (mean ± SD)” value ([3]; METAVIR score F ≥4, intravenous administration, T0) was 25.3±6.5 kPa and the “liver stiffness … (mean ± SD)” value ([3]; METAVIR score F ≥4, intravenous administration, T1) was 18.5±5.9 kPa. The “liver stiffness … (mean ± SD)” value ([3]; METAVIR score F ≥4, oral administration, T0) was 23.6±6.8 kPa, the “liver stiffness … (mean ± SD)” value ([3]; METAVIR score F ≥4, oral administration, T1) was 19.7±5.8 kPa and the “adverse effects of parenteral treatment” value ([4]; intravenous 3500 mg every 12 hours for 6 days, 20 patients, first week) was “no adverse effects”. For the same molecule, the “patients with gall stones dissolution by echographic evaluation” value ([4]; intravenous group, 3500 mg twice a week for 3 months) was 7 patients, the “average stones volume reduction” value ([4]; oral UDCA group, the remaining patients) was “less than 30%” and the “patients in whom colicky pain reappeared during the first 40 days” value [4, 11] was 4 patients out of 10. For the same molecule, the “patients with gall stones dissolution by echographic evaluation” value [4, 11] was 3 patients, the “reduction of the sludging concretions and overall stones volume compared with pre-treatment imaging” value ([4]; parenteral group, the remaining 3 patients) was “more than 50%” and the “HAI score: Fibrosis” value ([5]; intravenous administration, T0) was 3 (2×) and 4 (2×). The “HAI score: Intralobular” value ([5]; intravenous administration, T0) was 0, the “HAI score: Periportal +/- bridging” value ([5]; intravenous administration, T0) was 3 and 2 and 1 (2×) and the “HAI score: Portal inflammation” value ([5]; intravenous administration, T0) was 3 (2×) and 2 (2×). For the same molecule, the “HAI score: Fibrosis” value ([5]; intravenous administration, T1) was 2 and 1 (3×), the “HAI score: Intralobular” value ([5]; intravenous administration, T1) was 0 and the “HAI score: Periportal +/- bridging” value ([5]; intravenous administration, T1) was 1 and 0 (3×). The “HAI score: Portal inflammation” value ([5]; intravenous administration, T1) was 1 and 0 (2×) and 2, the “HAI score: Fibrosis” value ([5]; oral administration, T0) was 4 (3×) and 3 and the “HAI score: Intralobular” value ([5]; oral administration, T0) was 0. The “HAI score: Periportal +/- bridging” value ([5]; oral administration, T0) was 1 (2×) and 3 and 2, the “HAI score: Portal inflammation” value ([5]; oral administration, T0) was 3 (2×) and 2 (2×) and the “HAI score: Fibrosis” value ([5]; oral administration, T1) was 3 (2×) and 2 (2×). For the same molecule, the “HAI score: Intralobular” value ([5]; oral administration, T1) was 0, the “HAI score: Periportal +/- bridging” value ([5]; oral administration, T1) was 1 and the “HAI score: Portal inflammation” value ([5]; oral administration, T1) was 2 (3×) and 1.
